Reference: patent publication US11464770B2, “Anticancer pharmaceutical composition” (NATIONAL CANCER CENTER, priority 2016, dated 2022)
Read-outs that look alike come from different tables or passages of the source.

Key:
[1] = test system: colorectal cancer cell lines (e.g. DLD-1, HCT 116, SW620, HCT-15, HCT-8, RKO); test: Cell based assay, cell viability (CellTiter-Glo), colorectal cancer cell lines
Experimental: (§1) Commercially available bladder cancer, prostate cancer, lung cancer, breast cancer, blood cancer, pancreatic cancer, colorectal cancer, brain cancer, neuroblastoma, melanoma, liver cancer, cervical carcinoma, ovarian cancer, renal cancer, and papilloma cell lines were each treated with trypsin-EDTA and cultured, followed by being seeded in each well of a 96 well plate. After 24 hours of treatment at constant temperature, the respective cells were treated with the candidate compound so that a final concentration became 0 to 2 μM. The treated cells were additionally cultured for 72 hours, and cell viability was measured by using an ATP detection method (CellTiter-Glo® Luminescent Cell Viability Assay, Promega).

neuroblastoma cell lines = test: Cell based assay, cell viability (CellTiter-Glo), neuroblastoma cell lines; conditions: Homo sapiens; SH-SY5Y cell line
Experimental: as §1

melanoma cell lines = test: Cell based assay, cell viability (CellTiter-Glo), melanoma cell lines; conditions: Homo sapiens; LOX-IMVI cell line
Experimental: as §1

[2] = Homo sapiens, DLD-1, 72 hours treatment, read-out: IC50, colorectal cancer cell line DLD-1
[3] = Homo sapiens, HCT 116, 72 hours treatment, read-out: IC50, colorectal cancer cell line HCT 116
[4] = Homo sapiens, HCT-8, 72 hours treatment, read-out: IC50, colorectal cancer cell line HCT-8
[5] = Homo sapiens, HCT-15, 72 hours treatment, read-out: IC50, colorectal cancer cell line HCT-15
[6] = Homo sapiens, HT-29, 72 hours treatment, read-out: IC50, colorectal cancer cell line HT-29
[7] = Homo sapiens, LoVo, 72 hours treatment, read-out: IC50, colorectal cancer cell line LoVo
[8] = Homo sapiens, SW480, 72 hours treatment, read-out: IC50, colorectal cancer cell line SW480
[9] = Homo sapiens, SW-620, SW620, 72 hours treatment, read-out: IC50, colorectal cancer cell line SW620
[10] = RKO, 72 hours treatment, read-out: IC50, colorectal cancer cell line RKO
[11] = Homo sapiens, DLD-1 cells, 72 hours treatment, read-out: IC50, colorectal cancer cell line DLD-1
[12] = Homo sapiens, HCT 116 cells, 72 hours treatment, read-out: IC50, colorectal cancer cell line HCT 116
[13] = Homo sapiens, HCT-8 cells, 72 hours treatment, read-out: IC50, colorectal cancer cell line HCT-8
[14] = Homo sapiens, HCT-15 cells, 72 hours treatment, read-out: IC50, colorectal cancer cell line HCT-15
[15] = Homo sapiens, HT-29 cells, 72 hours treatment, read-out: IC50, colorectal cancer cell line HT-29
[16] = Homo sapiens, LoVo cells, 72 hours treatment, read-out: IC50, colorectal cancer cell line LoVo
[17] = Homo sapiens, RKO cells, 72 hours treatment, read-out: IC50, colorectal cancer cell line RKO
[18] = Homo sapiens, SW480 cells, 72 hours treatment, read-out: IC50, colorectal cancer cell line SW480
[19] = Homo sapiens, SW-620, SW620 cells, 72 hours treatment, read-out: IC50, colorectal cancer cell line SW620

IC50 [1, 2]	IC50 [1, 3]	IC50 [1, 4]	IC50 [1, 5]	IC50 [1, 6]	IC50 [1, 7]	IC50 [1, 8]	IC50 [1, 9]	IC50 [1, 10]	IC50 (neuroblastoma cell lines)	IC50 (melanoma cell lines)	IC50 [1, 11]	IC50 [1, 12]	IC50 [1, 13]	IC50 [1, 14]	IC50 [1, 15]	IC50 [1, 16]	IC50 [1, 17]	IC50 [1, 18]	IC50 [1, 19]	SMILES
> 2000 nM	> 2000 nM	> 2000 nM	> 2000 nM	> 10000 nM	> 2000 nM	> 2000 nM	> 2000 nM	> 2000 nM	> 2000 nM	> 2000 nM	–	–	–	–	–	–	–	–	–	CC(=O)c1c(SCc2ccc([N+](=O)[O-])cc2)[nH]c2c(Br)ccc(Cl)c2c1=O [Compound 32, 3-acetyl-8-bromo-5-chloro-2-((4-nitrobenzyl)thio)quinolin-4(1H)-one]
–	–	–	–	–	–	–	–	–	830 nM	1340 nM	1520 nM	1480 nM	1660 nM	1730 nM	> 10000 nM	> 2000 nM	1340 nM	> 2000 nM	1760 nM	CC(=O)c1c([S+]([O-])Cc2ccc(C#N)s2)[nH]c2c(Br)ccc(Cl)c2c1=O (centres unmarked) [Compound 98, 5-(((3-acetyl-8-bromo-5-chloro-4-oxo-1,4-dihydroquinolin-2-yl)sulfinyl)methyl)thiophene-2-carbonitrile]
> 2000 nM	> 2000 nM	> 2000 nM	> 2000 nM	> 10000 nM	> 2000 nM	> 2000 nM	> 2000 nM	> 2000 nM	> 2000 nM	> 2000 nM	–	–	–	–	–	–	–	–	–	CSc1c(C(C)=O)c(=O)c2c(Cl)ccc(Br)c2n1C(C)=O [Compound 18, 1,1′-(8-bromo-5-chloro-2-(methylthio)-4-oxoquinoline-1,3(4H)-diyl)bis(ethan-1-one)]
–	–	–	–	–	–	–	–	–	> 2000 nM	> 2000 nM	> 2000 nM	> 2000 nM	> 2000 nM	> 2000 nM	> 10000 nM	> 2000 nM	> 2000 nM	> 2000 nM	> 2000 nM	COCCNc1ccc(C[S+]([O-])c2[nH]c3c(Br)ccc(Cl)c3c(=O)c2C(C)=O)cn1 (centres unmarked) [Compound 105, 3-acetyl-8-bromo-5-chloro-2-(((6-((2-methoxyethyl)amino)pyridin-3-yl)methyl)sulfinyl)quinolin-4(1H)-one]
> 2000 nM	> 2000 nM	> 2000 nM	> 2000 nM	> 10000 nM	> 2000 nM	> 2000 nM	> 2000 nM	> 2000 nM	> 2000 nM	> 2000 nM	–	–	–	–	–	–	–	–	–	CC(=O)c1c([S+]([O-])CC#N)[nH]c2c(Br)ccc(Cl)c2c1=O (centres unmarked) [Compound 65, 2-((3-acetyl-8-bromo-5-chloro-4-oxo-1,4-dihydroquinolin-2-yl)sulfinyl)acetonitrile]
810 nM	1670 nM	> 2000 nM	> 2000 nM	> 10000 nM	> 2000 nM	> 2000 nM	> 2000 nM	> 2000 nM	> 2000 nM	1500 nM	–	–	–	–	–	–	–	–	–	CC(=O)c1c([S+](C)[O-])[nH]c2c(Br)ccc(Cl)c2c1=O (centres unmarked) [Compound 1, 3-acetyl-8-bromo-5-chloro-2-(methylsulfinyl)quinolin-4(1H)-one]
> 2000 nM	> 2000 nM	> 2000 nM	> 2000 nM	> 10000 nM	> 2000 nM	> 2000 nM	> 2000 nM	> 2000 nM	> 2000 nM	> 2000 nM	–	–	–	–	–	–	–	–	–	CSc1c(C(C)=O)c(=O)c2c(Cl)ccc(Br)c2n1S(=O)(=O)c1ccc(C(C)(C)C)cc1 [Compound 40, 3-acetyl-8-bromo-1-((4-(tert-butyl)phenyl)sulfonyl)-5-chloro-2-(methylthio)quinolin-4(1H)-one]
> 2000 nM	> 2000 nM	> 2000 nM	> 2000 nM	> 10000 nM	> 2000 nM	> 2000 nM	> 2000 nM	> 2000 nM	> 2000 nM	> 2000 nM	–	–	–	–	–	–	–	–	–	CC(=O)c1c(Sc2ccccc2)[nH]c2c(Br)ccc(Cl)c2c1=O [Compound 12, 3-acetyl-8-bromo-5-chloro-2-(phenylthio)quinolin-4(1H)-one]
–	–	–	–	–	–	–	–	–	> 2000 nM	> 2000 nM	> 2000 nM	> 2000 nM	> 2000 nM	> 2000 nM	> 10000 nM	> 2000 nM	> 2000 nM	> 2000 nM	> 2000 nM	CC(=O)c1c([S+]([O-])Cc2ccc(N)nc2)[nH]c2c(Br)ccc(Cl)c2c1=O (centres unmarked) [Compound 100, 3-acetyl-2-(((6-aminopyridin-3-yl)methyl)sulfinyl)-8-bromo-5-chloroquinolin-4(1H)-one]
> 2000 nM	> 2000 nM	> 2000 nM	> 2000 nM	> 10000 nM	> 2000 nM	> 2000 nM	> 2000 nM	> 2000 nM	> 2000 nM	> 2000 nM	–	–	–	–	–	–	–	–	–	CC(=O)c1c([S+]([O-])Cc2ccc(C(=O)c3ccccc3)cc2)[nH]c2c(Br)ccc(Cl)c2c1=O (centres unmarked) [Compound 63, 3-acetyl-2-((4-benzoylbenzyl)sulfinyl)-8-bromo-5-chloroquinolin-4(1H)-one]
> 2000 nM	> 2000 nM	> 2000 nM	> 2000 nM	> 10000 nM	> 2000 nM	> 2000 nM	> 2000 nM	> 2000 nM	> 2000 nM	> 2000 nM	–	–	–	–	–	–	–	–	–	COCSc1[nH]c2c(Br)ccc(Cl)c2c(=O)c1C(C)=O [Compound 61, 3-acetyl-8-bromo-5-chloro-2-((methoxymethyl)thio)quinolin-4(1H)-one]
> 2000 nM	> 2000 nM	> 2000 nM	> 2000 nM	> 10000 nM	> 2000 nM	> 2000 nM	> 2000 nM	> 2000 nM	> 2000 nM	> 2000 nM	–	–	–	–	–	–	–	–	–	CC(=O)c1c(SCc2cc(F)cc(F)c2)[nH]c2c(Br)ccc(Cl)c2c1=O [Compound 45, 3-acetyl-8-bromo-5-chloro-2-((3,5-difluorobenzyl)thio)quinolin-4(1H)-one]
1960 nM	> 2000 nM	> 2000 nM	> 2000 nM	> 10000 nM	> 2000 nM	> 2000 nM	> 2000 nM	> 2000 nM	> 2000 nM	> 2000 nM	–	–	–	–	–	–	–	–	–	CC(=O)c1c([S+](C)[O-])n(S(=O)(=O)c2ccc(C(C)(C)C)cc2)c2c(Br)ccc(Cl)c2c1=O (centres unmarked) [Compound 42, 3-acetyl-8-bromo-1-((4-(tert-butyl)phenyl)sulfonyl)-5-chloro-2-(methylsulfinyl)quinolin-4(1H)-one]
> 2000 nM	> 2000 nM	> 2000 nM	> 2000 nM	> 10000 nM	> 2000 nM	> 2000 nM	> 2000 nM	> 2000 nM	> 2000 nM	> 2000 nM	–	–	–	–	–	–	–	–	–	CSc1[nH]c2ccc(F)cc2c(=O)c1C(C)=O [Compound 8, 1-(6-fluoro-4-hydroxy-2-(methylthio)quinolin-3-yl)ethan-1-one]
> 2000 nM	> 2000 nM	> 2000 nM	> 2000 nM	> 10000 nM	> 2000 nM	> 2000 nM	> 2000 nM	> 2000 nM	> 2000 nM	> 2000 nM	–	–	–	–	–	–	–	–	–	CC(=O)c1c([S+]([O-])Cc2ccccc2)n(C(=O)c2ccc(Br)cc2)c2c(Br)ccc(Cl)c2c1=O (centres unmarked) [Compound 20, 3-acetyl-2-(benzylsulfinyl)-8-bromo-1-(4-bromobenzoyl)-5-chloroquinolin-4(1H)-one]
920 nM	1520 nM	1910 nM	1420 nM	> 10000 nM	> 2000 nM	> 2000 nM	1770 nM	1540 nM	> 2000 nM	1120 nM	–	–	–	–	–	–	–	–	–	CC(=O)c1c([S+]([O-])Cc2ccc(S(F)(F)(F)(F)F)cc2F)[nH]c2c(Br)ccc(Cl)c2c1=O (centres unmarked) [Compound 69, 3-acetyl-8-bromo-5-chloro-2-((2-fluoro-4-(pentafluoro-16-sulfanyl)benzyl)sulfinyl)quinolin-4(1H)-one]
> 2000 nM	> 2000 nM	> 2000 nM	> 2000 nM	> 10000 nM	> 2000 nM	> 2000 nM	> 2000 nM	> 2000 nM	> 2000 nM	> 2000 nM	–	–	–	–	–	–	–	–	–	CC(=O)c1c(SCc2ccc(Cl)cc2)[nH]c2c(Br)ccc(Cl)c2c1=O [Compound 10, 3-acetyl-8-bromo-5-chloro-2-((4-chlorobenzyl)thio)quinolin-4(1H)-one]
> 2000 nM	> 2000 nM	> 2000 nM	> 2000 nM	> 10000 nM	> 2000 nM	> 2000 nM	> 2000 nM	> 2000 nM	> 2000 nM	–	–	–	–	–	–	–	–	–	–	CC(=O)c1c(SCc2cccc(F)c2)[nH]c2c(Br)ccc(Cl)c2c1=O [Compound 49, 3-acetyl-8-bromo-5-chloro-2-((3-fluorobenzyl)thio)quinolin-4(1H)-one]
